Test results taken from ChEMBL document CHEMBL1201862, “PubChem BioAssay data set” (2004).
Calls of active or inactive are those of the source.

Assays:
[1] = target: T1, Calpain-2 catalytic subunit (Sus scrofa, UniProt P43367); experiment: m-calpain protease blockers, concentration series – biochemical, fluorogenic peptide substrate, dose response (AID 1420); type: functional
T1 sequence (P43367 whole entry): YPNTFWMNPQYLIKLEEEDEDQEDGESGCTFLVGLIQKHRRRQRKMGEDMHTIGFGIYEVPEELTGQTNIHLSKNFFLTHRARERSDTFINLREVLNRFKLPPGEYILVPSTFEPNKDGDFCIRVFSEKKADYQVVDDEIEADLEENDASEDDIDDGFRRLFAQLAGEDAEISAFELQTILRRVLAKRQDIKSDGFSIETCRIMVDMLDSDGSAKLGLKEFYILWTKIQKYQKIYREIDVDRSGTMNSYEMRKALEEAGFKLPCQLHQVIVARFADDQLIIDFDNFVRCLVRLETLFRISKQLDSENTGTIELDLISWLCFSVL

[2] = target: T2, Corticotropin-releasing factor receptor 2/Corticotropin-releasing factor-binding protein (Homo sapiens, UniProt P24387+Q13324); experiment: Dose Response confirmation of uHTS hits for small molecule antagonists of the CRF-binding protein and CRF-R2 receptor complex.; type: functional; conditions: read-out: IC50_Mean
T2 sequence (Q13324 whole entry): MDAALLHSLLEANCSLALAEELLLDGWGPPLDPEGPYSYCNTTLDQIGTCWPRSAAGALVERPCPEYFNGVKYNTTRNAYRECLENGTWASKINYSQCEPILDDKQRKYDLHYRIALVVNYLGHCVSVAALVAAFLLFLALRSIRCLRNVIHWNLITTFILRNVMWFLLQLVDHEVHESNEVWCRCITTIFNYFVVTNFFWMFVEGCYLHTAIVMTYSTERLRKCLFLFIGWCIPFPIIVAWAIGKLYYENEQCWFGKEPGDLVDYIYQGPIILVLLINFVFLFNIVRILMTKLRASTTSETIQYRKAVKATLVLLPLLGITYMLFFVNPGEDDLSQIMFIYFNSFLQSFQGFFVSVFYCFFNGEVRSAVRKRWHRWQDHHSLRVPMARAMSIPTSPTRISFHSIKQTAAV
T2 sequence (P24387 whole entry): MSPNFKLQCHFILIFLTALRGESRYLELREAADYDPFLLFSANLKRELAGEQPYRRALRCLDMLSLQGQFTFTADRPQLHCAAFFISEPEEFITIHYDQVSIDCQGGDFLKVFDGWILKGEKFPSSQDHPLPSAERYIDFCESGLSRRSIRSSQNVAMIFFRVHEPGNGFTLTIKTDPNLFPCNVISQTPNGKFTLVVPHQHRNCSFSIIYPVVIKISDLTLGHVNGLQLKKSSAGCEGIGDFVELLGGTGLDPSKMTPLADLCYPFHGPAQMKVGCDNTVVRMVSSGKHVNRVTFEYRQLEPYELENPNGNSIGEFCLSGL

[3] = target: T2, Corticotropin-releasing factor receptor 2/Corticotropin-releasing factor-binding protein; experiment: activators of CRF receptor 2 with binding protein – uHTS hits, confirmation (AID 602473); type: functional; conditions: read-out: EC50_Mean
[4] = loss of viability in HepG2 cells – cell-based, CellTiter-Glo, cherry-picked, cytotoxicity control for Shn3 inhibitor project, dose response (AID 624134); type: functional
[5] = test system: INS1; experiment: INS-1E survival protection against cytokine death – cell-based, luminescence, retest, dose response (AID 449756); type: functional; conditions: Rattus norvegicus;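 note: cell death triggered by IL-1 beta plus TNF-alpha plus IFN-gamma mixture; protective hits raise ATP signal compared with cytokine alone wells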
[6] = target: T3, Heat shock factor protein 1 (Mus musculus, UniProt P38532); experiment: decrease of HSF1-responsive luciferase luminescence – cell-based, NIH3T3, dose retest, confirmation (AID 2382); type: functional;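 note: NIH3T3 fibroblasts with HSF1-driven luciferase reporter stressed by proteasome inhibitor MG132; luminescence from HSF1-driven luciferase expression after 8 hours of MG132 stress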
T3 sequence (P38532 whole entry): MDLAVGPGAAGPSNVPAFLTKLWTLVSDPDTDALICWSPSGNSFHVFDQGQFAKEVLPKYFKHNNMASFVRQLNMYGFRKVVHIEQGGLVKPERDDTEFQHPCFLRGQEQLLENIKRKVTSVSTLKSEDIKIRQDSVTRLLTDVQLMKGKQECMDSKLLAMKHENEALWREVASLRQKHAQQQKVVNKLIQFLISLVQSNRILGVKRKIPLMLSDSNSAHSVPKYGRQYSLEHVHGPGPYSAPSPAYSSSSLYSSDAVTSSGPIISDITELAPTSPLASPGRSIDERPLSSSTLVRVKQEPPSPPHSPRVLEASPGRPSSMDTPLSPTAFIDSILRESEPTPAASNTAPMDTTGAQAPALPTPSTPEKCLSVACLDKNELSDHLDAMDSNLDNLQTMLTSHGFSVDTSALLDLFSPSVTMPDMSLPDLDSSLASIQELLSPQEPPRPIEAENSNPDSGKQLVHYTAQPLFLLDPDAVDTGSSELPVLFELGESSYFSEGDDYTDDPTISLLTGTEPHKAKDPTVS

[7] = reduction of Shn3 3'UTR-driven luciferase in osteoblasts – cell-based, Clone20 osteoblasts, firefly luciferase, cherry-picked, dose response (AID 624132); type: functional;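 note: firefly luciferase luminescence from reporter carrying the Shn3 3'UTR in osteoblasts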
[8] = non-specific 3'UTR reporter inhibition in Clone20-Shn3RL – cell-based, Renilla luciferase, cherry-picked, counter-screen for Shn3 inhibitor project, dose response (AID 624133); type: functional
[9] = target: Nonstructural protein 1 (Influenza A virus, UniProt Q194T2); type: functional, Influenza A virus (A/California/07/2009(H1N1))
[10] = test system: H9c2; experiment: cells; type: functional, cell-based; conditions: Rattus norvegicus, H9c2, Myocardium;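 note: confirmatory concentration-response retest of ultra-high-throughput screening hits for modulation of myocardial damage; cell death induced by hydrogen peroxide oxidative stress; compound pretreatment for 60 min then peroxide exposure for 2 h; potency is for protecting the cells against peroxide damage rather than for killing them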
[11] = Trypanosoma cruzi growth suppression in host cells – NIH3T3 host cells, beta-gal luminescence, confirmation (AID 2044); type: functional, cell-based;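 note: intracellular parasites grown in NIH/3T3 mouse fibroblasts as host cells; luminescent beta-galactosidase reporter signal from transgenic T. cruzi replicating inside host cells; inhibitors lower the luminescence signal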
[12] = NIH3T3 cell viability loss – ATP luminescence, mouse fibroblasts, counter-screen, dose response (AID 2010); type: functional, cell-based;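 note: cells exposed to compound for about 90 hours before reading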

Sequence of Nonstructural protein 1 (Q194T2 whole entry): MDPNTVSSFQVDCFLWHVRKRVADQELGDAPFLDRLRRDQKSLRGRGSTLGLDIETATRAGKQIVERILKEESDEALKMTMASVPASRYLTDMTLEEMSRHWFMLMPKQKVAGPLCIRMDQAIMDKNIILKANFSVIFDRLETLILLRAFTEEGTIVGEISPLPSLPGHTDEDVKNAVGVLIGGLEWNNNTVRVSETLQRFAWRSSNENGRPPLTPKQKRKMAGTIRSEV

For CC(C)CCNC(=O)C12CN(Cc3ccccc3)CC1C(c1ccc([N+](=O)[O-])cc1)=NO2 (stereo not drawn), the IC50 [1] was 7.38 µM (not active).

In the case of CC(=O)Nc1ccc(S(=O)(=O)N2CCN(c3nnnn3-c3ccccc3)CC2)cc1, the IC50 [2] is reported as > 47.1 µM (inactive) and the EC50 [3] is reported as > 53 µM (inactive).

With O=C1CC(c2ccccc2)CN1S(=O)(=O)c1ccccc1 (stereo not drawn) the IC50 [2] was > 47.1 µM (inactive) and the EC50 [3] was > 53 µM (inactive).

For Cc1cccc2c(C(=O)N3CCN(c4ccccn4)CC3)cc(-c3cccc(Br)c3)nc12, the AC50 [4] was 45.4 µM (active), the AC50 [5] was 3.73 µM (active) and the EC50 [6] was > 195 µM (not active). The AC50 [7] was 6.48 µM (active).

With O=C(NNC(=O)c1cccc(S(=O)(=O)N2CCc3ccccc32)c1)c1ccccc1 the AC50 [8] was 3.89 µM (active), the AC50 [4] was 46.2 µM (active) and the AC50 [7] was 1.52 µM (active).

With O=C(OCCN1C(=O)c2ccccc2C1=O)c1ccc(S(=O)(=O)N2CCCCCC2)cc1 the IC50 [1] was > 50 µM (not active).

For Cc1c(N2C(=O)C3C4C=CC(C5CC45)C3C2=O)c(=O)n(-c2ccccc2)n1C (stereo not drawn), the IC50 [2] was > 47.1 µM (inactive) and the EC50 [3] was > 53 µM (inactive).

For COc1cc(OC)c2ccc(=O)oc2c1C(CCN1CCN(c2ccccc2)CC1)c1ccc(N(C)C)cc1 (stereo not drawn), the IC50 [9] was 32.5 µM (active).

For N#CCc1ccc(NS(=O)(=O)c2cccs2)cc1, the IC50 [2] was > 47.1 µM (inactive) and the EC50 [3] was > 53 µM (inactive).

With Cc1ccc(CCNC(=O)C2CCCN(S(=O)(=O)N3CC(C)CC(C)C3)C2)cc1 (stereo not drawn) the IC50 [2] was > 47.1 µM (inactive) and the EC50 [3] was > 53 µM (inactive).

In the case of Cc1ccc(CN(C)C(=O)CCc2c[nH]c3ccccc23)o1, the IC50 [2] is reported as > 47.1 µM (inactive) and the EC50 [3] is reported as > 53 µM (inactive).

With CCOC(=O)N1CCN(C2=C(NS(=O)(=O)c3ccc(C)cc3)C(=O)c3ccccc3C2=O)CC1 the IC50 [9] was 21.5 µM (active).

For Nn1c(SCC(=O)NC(=O)Nc2ccc3c(c2)OCCO3)nnc1C1CC1, the IC50 [1] was 9.49 µM (not active).

For COc1ccc(NC(=O)c2cc3c(=O)n(C)c4ccccc4c3n2C)cc1OC, the IC50 [10] was > 79 µM (inactive).

In the case of Cc1cc(C)c(S(=O)(=O)Nc2ccc3c(c2)CCC3)c(C)c1, the IC50 [1] is reported as 11.4 µM (not active).

For CC(C)Nc1nnc(Sc2ccc(Cl)cc2[N+](=O)[O-])s1, the EC50 [6] was > 195 µM (not active) and the IC50 [1] was 4.91 µM (not active).

In the case of Cc1ccc(-n2cnn(-c3ccc([N+](=O)[O-])cc3[N+](=O)[O-])c2=O)cc1, the EC50 [11] is reported as 1.54 µM (active), the EC50 [12] is reported as > 60 µM (not active) and the IC50 [9] is reported as > 100 µM (active).

With O=C(c1ccc2[nH]c3c(c2c1)CCCC3)N1CCN(c2ccc(F)cc2)CC1 the IC50 [9] was > 100 µM (active).

For COc1ccc(C(=O)COC(=O)C(CCCCN2C(=O)C3C4C=CC(C4)C3C2=O)N2C(=O)C3C4C=CC(C4)C3C2=O)cc1 (stereo not drawn), the IC50 [10] was > 79 µM (inactive).
